Experimental data published in patent publication US7238679B2, “Heterocycles and uses thereof” (Ariad Pharmaceuticals, Inc., priority 2002, dated 2007).

Columns and labels:
[1] = tested on: MDA-468 tumor cell line; assay: Conventional cell-based assay against the MDA-468 tumor cell line
Text: Cell-based methods for measuring antiproliferative activity are well known and can be used for comparative characterization of compounds of this invention. In general, cell proliferation and cell viability assays are designed to provide a detectable signal when cells are metabolically active. Compounds may be tested for antiproliferative activity by measuring any observed decrease in metabolic activity of the cells after exposure of the cells to compound. Commonly used methods include, for example, measurement of membrane integrity (as a measure of cell viability)(e.g. using trypan blue exclusion) or measurement of DNA synthesis (e.g. by measuring incorporation of BrdU or 3H-thymidine).
Some methods for assaying cell proliferation use a reagent that is converted into a detectable compound during cell proliferation. Particularly preferred compounds are tetrazolium salts and include without limitation MTT (3-(4, 5-dimethylthiazol-2-yl)-2,5-diphenyltetrazolium bromide; Sigma-Aldrich, St. Louis, Mo.), MTS (3-(4,5-dimethylthiazol-2-yl)-5-(3-carboxymethoxyphenyl)-2-(4-sulfophenyl)-2H-tetrazolium), XTT (2,3-bis(2-Methoxy4-nitro-5-sulfophenyl)-2H-tetrazolium-5-carboxanilide), INT, NBT, and NTV (Bernas et al. Biochim Biophys Acta 1451(1):73–81, 1999). Preferred assays utilizing tetrazolium salts detect cell proliferation by detecting the product of the enzymatic conversion of the tetrazolium salts into blue formazan derivatives, which are readily detected by spectroscopic methods (Mosman. J. Immunol. Methods. 65:55–63, 1983).
Generally, preferred methods for assaying cell proliferation involve incubating cells in a desired growth medium with and without the compounds to be tested. […] Cells are processed, and the optical density of the cells is determined to measure the amount of formazan derivatives. […]

Structure (SMILES) | melting point | IC50 [1]
COc1cc2ncnc(Nc3ccc(F)c(Cl)c3)c2cc1P(C)(C)=O [Example 3, 4-[(3-Chloro-4-fluorophenyl)amino]-7-methoxy-6-(dimethylphosphinoyl)-quinazoline] | 257 to 259 °C | < 50 µM
CCOP(=O)(OCC)c1cc2c(Nc3ccc(F)c(Cl)c3)ncnc2cc1OC [Example 5, 4-[(3-Chloro-4-fluorophenyl)amino]-7-methoxy-6-(diethylphosphonate)-quinazoline] | 215 to 217 °C | < 50 µM
CCOP(C)(=O)c1cc2c(Nc3ccc(F)c(Cl)c3)ncnc2cc1OC (stereo not drawn) [Example 7, 4-[(3-Chloro-4-fluorophenyl)amino]-7-methoxy-6-(ethyl-methylphosphinate)-quinazoline] | 199 to 200 °C | < 50 µM
